According to patent US11285125B2, “Oxidative retinal diseases” (priority 2011, dated 2022):
Where two headings read alike, the source gives them in different places.

Legend:
[1] = test system: Q-less coq3 yeast
Method: Wild-type, yeast Q-less coq3, or respiratory deficient con 1 null mutants were incubated in the presence of 200 μM of LA and D2-LA at different ratios of PUFAs. Serial dilutions (1:5) starting at 0.2 OD/ml were spotted on YPD solid plate medium. A zero-time untreated control is shown on the top left. Growth at 30° C.
Wild-type, yeast Q-less coq3, or respiratory deficient con 1 null mutants were incubated in the presence of 200 μM of ALA and D4-LA at different ratios of PUFAs. Serial dilutions (1:5) starting at 0.2 OD/ml were spotted on YPD solid plate medium. Growth at 30° C.
Wild-type, yeast Q-less coq3, or respiratory deficient cor1 null mutants were incubated in the presence of 200 μM of LA and D2-LA at different ratios of PUFAs, as indicated in FIG. 9. Serial dilutions (1:5) starting at 0.20D/ml were spotted on YPD solid plate medium. […] Growth was at 30° C.
The experimental protocol described for Example 14 was also reproduced in vivo using Q-less coq3 yeast strains (FIG. 10) and different ratios of ALA to D4-ALA. Wild-type, yeast Q-less coq3, or respiratory deficient cor1 null mutants were incubated in the presence of 200 μM of ALA and D4-Lnn (Linolenic acid) at different ratios of PUFAs, as indicated in FIG. 10. Serial dilutions (1:5) starting at 0.2 OD/ml were spotted on YPD solid plate medium. Growth was at 30° C.

[2] = test system: coq null mutants (Q-less yeast); details: for viability of coq null mutants after fatty acid treatment: 200 μM fatty acid, plate dilution assay; for viability of cells by quantitative colony counting: colony counting at 1, 2 and 4 h
Method: Yeast coq3, coq7 and coq9 null mutants were prepared in the W303 yeast genetic background (WT). […] Cells were washed twice with sterile water and resuspended in phosphate buffer (0.10 M sodium phosphate, pH 6.2, 0.2% dextrose) to an OD600 nm=0.2. Samples were removed and 1:5 serial dilutions starting at 0.20 OD/ml were plated on YPD plate medium, to provide a zero time untreated control (shown in top left panel). The designated fatty acids were added to 200 μM final concentration to 20 ml of yeast in phosphate buffer. At 2 h, 4 h, and 16 h samples were removed, 1:5 serial dilutions prepared, and spotted onto YPD plate medium. Pictures were taken after 2 days of growth at 30° C. This panel is representative of two independent assays, performed on different days.
The fatty acid sensitive assay was performed as described in FIG. 6-1, except that 100 μl aliquots were removed at 1, 2, and 4 h and, following dilution, spread onto YPD plates. Pictures were taken after 2 to 2.5 days, and the number of colonies counted. Yeast strains include Wild type (circles), atp2 (triangles), or coq3 (squares); Fatty acid treatments include oleic C18:1 (solid line), linolenic, C18:3, n-3 (dashed line) or 11,11,14,14-D4-linolenic, C18:3, n-3, (dotted line).
A plate dilution assay can be used to assess PUFA sensitivity. This assay can be performed by spotting serial five-fold dilutions of aliquots onto YPD plate media (FIG. 3). The sensitivity of the different strains can be observed by visual inspection of the density of cells in each spot.

[3] = Kinetics of O2 consumption during non-enzymatic chain oxidation in chlorobenzene initiated by AMVN; type: physicochemical; details: for rate of oxidation, ROX: 0.71 M in chlorobenzene, 40 mM AMVN, 37° C.
Method: FIG. 7. Kinetics of O2 consumption accompanied the oxidation of 0.71 M LA (plots 1 and 2) and 0.71 M D2-LA (plot 3) in chlorobenzene initiated by 40 mM AMVN at 37° C. Plot 2-0.23 mM HPMC was added to 0.71 M LA.
The kinetics of oxygen consumption during the oxidation of LA and D2-LA was studied with a glass capillary microvolumeter (FIG. 7). The rate of oxidation, ROX, was measured as a slope of [O2] traces. The rate of initiation, RIN, was determined by the inhibitor method with HPMC (“6-hydroxy-2,2,5,7,8-pentamethylbenzochroman”) as a reference inhibitor. RIN was calculated from the induction period of inhibited oxidation, tIND: RIN=2·[HPMC]/tIND. […] When the process was inhibited by 0.23 mM chain-breaking antioxidant HPMC, the duration of the induction period, tIND, was about 48 min, with the RIN value of around 0.16×10^−6 M/s. […] The latter precludes a direct determination of RIN. […] An estimated kinetic isotope effect (“KIE”), from comparison of ROX for LA and D2-LA, was around 6.1×10^−6/0.18×10^−6≈35. A similar KIE was determined during the oxidation of LA and 11,11-d2-LA in Triton X-100 aqueous micelles (data not shown). For comparative purposes, the theoretical KIE is 6.9 at 25° C. See Carpenter, “Determination of Organic Reaction Mechanisms” (John Wiley & Sons, 1984), p. 89.

[4] = Rate of oxidation of mixtures of LA and D2-LA in chlorobenzene; type: physicochemical
Method: FIG. 8. Dependence of the rate of oxidation of the mixture of LA and D2-LA in chlorobenzene solution on mixture composition. Conditions: [LA]+[11,11-d2-LA]=0.775 M; [AMVN]=0.0217 M; 37° C. RIN=(1.10±0.08)×10^−7 M/sec.
To simulate the likely in vivo conditions, the kinetics of the oxidation of the mixtures of D2-LA and LA were studied (FIG. 8). In the experiments, the concentration of LA plus 11,11-d2-LA was 0.775 M; the concentration of AMVN was 0.0217 M; and the reactions were carried out at 37° C. The results afforded an RIN of 1.10±0.08×10^−7 M/sec.

[5] = test system: Wild-type yeast cells; experiment: Copper-stress lipid peroxidation assay (C11-Bodipy 581/591 fluorescence); type: cell-based, S. cerevisiae; details: 200 μM fatty acid 2 hours, then 50 μM CuSO4 60 min
Method: Wild-type yeast cells were treated as described above except the yeast were treated with 200 μM of the designated fatty acid for 2 hours, washed with sterile water, and were either not treated (triangles) or treated with 50 μM CuSO4 (squares) at room temperature. After 60 min of copper treatment cells were treated with 8 μM C11-Bodipy 581/591 for 30 min at room temperature. Four 100 μl aliquots were plated in a 96-well plate and the fluorescence was measured.

[6] = test system: coq null mutants (Q-less yeast); details: cited from earlier work; for sensitivity of Q-less yeast to fatty acid treatment: compared with wild-type parental strain
[7] = 70 kg person; cited from earlier work
[8] = test system: wild-type yeast (W303); details: four hour treatment, strain W303-1B background; cited from earlier work

With [2H]C(/C=C\CCCCC)/C=C\CCCCCCCC(=O)O (stereo not shown) [11,11-D,H-LA, [11-^2H]-linoleic acid] as the compound, how does the “loss in cell viability” value ([1]; after 3 hours of treatment, data not shown) read?
The value was “no detectable loss in cell viability”.

For [2H]C([2H])(/C=C\C/C=C\CC)C/C=C\CCCCCCC(=O)O [11, 11-D2-linolenic acid, 11,11-Dideutero-cis,cis,cis-octadeca-8,12,15-trienoic acid], which “viability of coq null mutants after fatty acid treatment” value (“viability of coq null mutants” for short) [2] is on record?
The value was “comparable protection”.

For [2H]C([2H])(/C=C\CC)/C=C\CC/C=C\CCCCCCC(=O)O [14, 14-D2-linolenic acid, 14,14-Dideutero-cis,cis,cis-octadeca-8,12,15-trienoic acid], which “viability of coq null mutants” value [2] is on record?
The value was “comparable protection”.

Which “length of the kinetic chain, ν=ROX/RIN” value [3] does the source give for [2H]C([2H])(/C=C\CCCCC)/C=C\CCCCCCCC(=O)O [D2-LA, 11,11-Dideutero-cis,cis-9,12-Octadecadienoic acid] here?
The value was “≈ 1.1”.

What about the “rate of oxidation, ROX” value [3] of the same compound?
The value was 1.8e-07 M/s.

What about the “effect of addition of HPMC on oxidation” value ([3]; data not shown) of the same compound?
Its value is “did not result in the decrease in ROX and the appearance of any detectable induction period”.

And the “estimated kinetic isotope effect (KIE)” value ([3]; from comparison of ROX for LA and D2-LA)?
Its value is “≈ 35”.

And the “effect in mixture with non-deuterated methyl linoleate” value ([4]; data not shown)?
Its value is “qualititatively similar effect”.

And the “effect of D2-LA on autoxidation of non-deuterated LA” value ([4]; mixtures with LA)?
The value was “‘protects’ the non-deuterated LA against autoxidation”.

What about the “levels of lipid peroxidation” value [5] of the same compound?
The value was “lower levels of lipid peroxidation similar to yeast not treated with PUFA”.

And the “minimal amount of D2-LA to cancel the toxicity of LA” value ([1]; 200 μM total LA and D2-LA at different ratios)?
The value was 10-15%.

For [2H]C([2H])(/C=C\CC)/C=C\C([2H])([2H])/C=C\CCCCCCCC(=O)O [D4-ALA, 11,11,14,14-Tetradeutero-cis,cis,cis-9,12,15-Octadecatrienoic acid], which “viability of coq null mutants” value ([2]; listed as D4-linolenic acid) is on record?
The value was “resistant to PUFA-mediated cell killing”.

What about the “viability of cells by quantitative colony counting” value [2] of the same compound?
Its value is “similar”.

What about the “minimal amount of deuterated Lnn to cancel the toxicity of ALA” value ([1]; 200 μM total ALA and D4-Lnn at different ratios) of the same compound?
The value was 15-20%.

With CCCCC/C=C\C/C=C\CCCCCCCC(=O)O [LA, cis,cis-9,12-Octadecadienoic acid, reference compound] as the compound, how does the “length of the kinetic chain, ν=ROX/RIN” value [3] read?
The value was 38±3.

What about the “rate of oxidation, ROX” value [3] of the same compound?
Its value is 6.1e-06 M/s.

What about the “rate of initiation, RIN” value ([3]; calculated from induction period, RIN=2·[HPMC]/tIND) of the same compound?
The value was “around 0.16×10^−6 M/s”.

And the calculated oxidizability ([3]; n=5)?
Its calculated oxidizability is 0.0215±0.008 M^−0.5 s^−0.5.

With CCCCC/C=C\C/C=C\C/C=C\C/C=C\CCCC(=O)O [arachidonic acid] as the compound, how does the “sensitivity of Q-less yeast to fatty acid treatment” value [6] read?
Its value is “hypersensitive”.

With [2H]O[2H] [heavy water] as the compound, how does the “amount that might be drunk without serious consequences” value [7] read?
The value was 4.8 L.

With CC/C=C\C/C=C\C/C=C\CCCCCCCC(=O)O [linolenic acid, cis,cis,cis-9,12,15-Octadecatrienoic acid] as the compound, how does the “viability of coq null mutants” value [2] read?
The value was “dramatic loss of viability”.

What about the “viable Q-less (coq2, coq3, and coq5) yeast mutants” value ([6]; four hour treatment) of the same compound?
The value was “Less than 1%”.

And the “wild-type cells that remain viable” value [8]?
Its value is 70%.

Which “viability of cells by quantitative colony counting” value [2] does the source give for CCCCCCCC/C=C\CCCCCCCC(=O)O [oleic acid, reference compound] here?
The value was “similar”.

What about the “sensitivity of Q-less yeast to fatty acid treatment” value [6] of the same compound?
The value was “behave the same as the wild-type parental strain”.
